# Assay results taken from patent US10508109B2 (priority 2015, dated 2019).
# Structures can show the parent of a compound that is named as a salt. Where two headings read alike, the source gives them in different places.
# Columns and labels:
# A549 = experiment: Cell-based assay, anti-proliferative activity (Cell Counting Kit-8, 72 hours); conditions: Homo sapiens, read-out: IC50 (μM) A549
# Method: 100 micro-L of cell suspension was seeded onto 96-well microtiter plate (ViewPlate-96FTC, PerkinElmer). […] Cellular growth was determined using Cell Counting Kit-8 (DOJINDO) at 72 hours after the exposure of the candidate inhibitors. […] Accurate IC50 values were calculated as described previously.
# CCD-18Co = experiment: as above; conditions: Homo sapiens, read-out: IC50 (μM) CCD-18Co
# Method: (§1) Active candidate inhibitors against SUV39H2 were evaluated for their target-specific cytotoxicity using A549, HCT-116, HFL1, CCD-18Co and PC14. 100 micro-L of cell suspension was seeded onto 96-well microtiter plate (ViewPlate-96FTC, PerkinElmer). The initial cell concentration of A549, HCT-116, HFL1, CCD-18Co and PC14 were 3,000 cells/well, 2,000 cells/well and 2,500 cells/well, respectively. Cellular growth was determined using Cell Counting Kit-8 (DOJINDO) at 72 hours after the exposure of the candidate inhibitors. IC50 was used as an indicator of the anti-proliferative activity of the inhibitors, and calculated by serial dilution method (0, 1.5625, 3.125, 6.25, 12.5, 25, 50, and 100 micro-M). Accurate IC50 values were calculated as described previously.
# HFL1 = experiment: as above; conditions: Homo sapiens, read-out: IC50 (μM) HFL1
# Method: as §1
# HCT-116 = experiment: as above; conditions: Homo sapiens, read-out: IC50 (μM) HCT-116
# Method: as §1
# SUV39H2 = SUV39H2 (Homo sapiens (Human), UniProt Q9H5I1); conditions: read-out: IC50 (μM) Suv 39H2 assay
# [1] = A549 cells, Cell Counting Kit-8, 72 hours
# [2] = CCD-18Co cells, Cell Counting Kit-8, 72 hours
# [3] = HFL1 cells, Cell Counting Kit-8, 72 hours
# [4] = HCT-116 cells, Cell Counting Kit-8, 72 hours
# SUV39H2, sequence (Q9H5I1 whole entry): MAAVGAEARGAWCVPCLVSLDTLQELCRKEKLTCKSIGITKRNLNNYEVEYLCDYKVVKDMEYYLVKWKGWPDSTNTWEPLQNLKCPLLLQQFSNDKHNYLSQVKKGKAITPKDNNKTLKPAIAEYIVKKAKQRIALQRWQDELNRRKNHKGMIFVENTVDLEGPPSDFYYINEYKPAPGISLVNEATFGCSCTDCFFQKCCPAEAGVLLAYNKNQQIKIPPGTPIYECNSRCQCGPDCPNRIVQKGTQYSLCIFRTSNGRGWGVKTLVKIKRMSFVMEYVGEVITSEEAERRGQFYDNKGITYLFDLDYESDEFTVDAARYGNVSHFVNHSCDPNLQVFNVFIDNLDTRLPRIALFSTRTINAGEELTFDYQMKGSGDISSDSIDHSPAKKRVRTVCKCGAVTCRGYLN
Structure (SMILES),"IC50 (A549; A549, 72 h)","IC50 (CCD-18Co; CCD-18Co, 72 h)","IC50 (HFL1; HFL1, 72 h)","IC50 (HCT-116; HCT-116, 72 h)",IC50 (SUV39H2),IC50 (A549; [1]),IC50 (CCD-18Co; [2]),IC50 (HFL1; [3]),IC50 (HCT-116; [4]),IC50 (SUV39H2; enzyme assay)
"COc1cc(OC(C)C)c(-c2cn3ccc(N4CC[C@H](N)C4)cc3n2)cc1Br [Example 59, (S)-1-(2-(5-bromo-2-isopropoxy-4-methoxyphenyl)imidazo[1,2-a]pyridin-7-yl)pyrrolidin-3-amine hydrochloride]",3.4 µM,3.7 µM,1.8 µM,2.6 µM,0.0112 µM,–,–,–,–,–
"COc1cc(OC)c(-c2cn3ccc(C4CCNCC4)cc3n2)cc1Cl [Example 112, 2-(5-chloro-2,4-dimethoxyphenyl)-7-(piperidin-4-yl)imidazo[1,2-a]pyridine]",–,–,–,–,–,6.3 µM,8.8 µM,6.7 µM,7.5 µM,0.0623 µM
"COc1cc(OC)c(-c2cn3ccc(NCCN)cc3n2)cc1Cl [Example 10, N^1-(2-(5-chloro-2,4-dimethoxyphenyl)imidazo[1,2-a]pyridin-7-yl)ethane-1,2-diamine dihydrochloride]",6.8 µM,7.1 µM,3.7 µM,4.2 µM,0.015 µM,–,–,–,–,–
"COc1cc(OC)c(-c2cn3ccc(N4CCN(CCC#N)CC4)cc3n2)cc1Cl [Example 108, 3-(4-(2-(5-chloro-2,4-dimethoxyphenyl)imidazo[1,2-a]pyridin-7-yl)piperazin-1-yl)propanenitrile]",–,–,–,–,–,6.3 µM,5.9 µM,3 µM,10 µM,0.0142 µM
"COc1cc(OC)c(-c2cn3ccc(N4CCC(NC(=O)OC(C)(C)C)CC4)cc3n2)cc1Cl [Example 14, tert-butyl {1-[2-(5-chloro-2,4-dimethoxyphenyl)imidazo[1,2-a]pyridin-7-yl]piperidin-4-yl}carbamate]",–,–,–,–,–,2.7 µM,1.9 µM,1.8 µM,2 µM,0.0341 µM
"COc1cc(OC)c(-c2cn3ccc(N4CCOCC4)cc3n2)cc1C [Example 86, 4-(2-(2,4-dimethoxy-5-methylphenyl)imidazo[1,2-a]pyridin-7-yl)morpholine]",–,–,–,–,–,14 µM,13 µM,8 µM,14 µM,0.0207 µM
"COc1cc(OC)c(-c2cn3ccc(N4CCC(NC(=O)OC(C)(C)C)C4)nc3n2)cc1C#N (stereo not drawn) [Example 74, tert-butyl (1-(2-(5-cyano-2,4-dimethoxyphenyl)imidazo[1,2-a]pyrimidin-7-yl)pyrrolidin-3-yl) carbamate]",–,–,–,–,–,8.5 µM,6.4 µM,3.9 µM,8.1 µM,0.0303 µM
"COc1cc(OCC2CC2)c(-c2cn3ccc(N4CCOCC4)cc3n2)cc1Cl [Example 84, 4-(2-(5-chloro-2-(cyclopropylmethoxy)-4-methoxyphenyl)imidazo-[1,2-a]pyridin-7-yl)morpholine]",–,–,–,–,–,4.6 µM,4.3 µM,3.2 µM,3.8 µM,0.0138 µM
"COc1cc(OC)c(-c2cn3cc(N4CCC(N)CC4)ccc3n2)cc1Cl [Example 121, 1-(2-(5-chloro-2,4-dimethoxyphenyl)imidazo[1,2-a]pyridin-6-yl)piperidin-4-amine]",–,–,–,–,–,8.1 µM,6.8 µM,6.8 µM,18 µM,0.0514 µM
"COc1cc(OC)c(-c2cn3ccc(NCCNC(=O)OC(C)(C)C)nc3n2)cc1Br [Example 18, tert-butyl (2-((2-(5-bromo-2,4-dimethoxyphenyl)imidazo[1,2-a]pyrimidin-7-yl)amino)ethyl)carbamate]",–,–,–,–,–,14 µM,12 µM,11 µM,13 µM,0.0884 µM
"COc1cc(OC)c(-c2cn3ccc(N4CCC(NC(=O)OC(C)(C)C)C4)nc3n2)cc1Cl (stereo not drawn) [Example 26, tert-butyl (1-(2-(5-chloro-2,4-dimethoxyphenyl)imidazo[1,2-a]pyrimidin-7-yl)pyrrolidin-3-yl)carbamate]",–,–,–,–,–,7.9 µM,7.9 µM,6.7 µM,13 µM,0.017 µM
COc1cc(OC)c(-c2cn3ccc(N4CCC(NC(=O)OC(C)(C)C)C4)nc3n2)cc1Br (stereo not drawn) [Example 13],–,–,–,–,–,5.7 µM,4.4 µM,3.7 µM,6.6 µM,0.0219 µM
"COc1cc(OC)c(-c2cn3ccc(NCCN(C)C)cc3n2)cc1Cl [Example 83, N^1-(2-(5-chloro-2,4-dimethoxyphenyl)imidazo[1,2-a]pyridin-7-yl)-N^2,N^2-dimethylethane-1,2-diamine]",5.5 µM,7.1 µM,2.2 µM,6.7 µM,–,–,–,–,–,0.0373 µM
"COc1cc(OC)c(-c2cn3ccc(NCCCN)cc3n2)cc1Cl [Example 35, N^1-(2-(5-chloro-2,4-dimethoxyphenyl)imidazo[1,2-a]pyridin-7-yl)propane-1,3-diamine]",–,–,–,–,–,14 µM,14 µM,7 µM,9.8 µM,0.0124 µM
"COc1cc(OC)c(-c2cn3ccc(N4CCCC4)cc3n2)cc1Br [Example 1, 2-(5-bromo-2,4-dimethoxyphenyl)-7-(pyrrolidin-1-yl)imidazo[1,2-a]pyridine]",2.5 µM,2.6 µM,1.6 µM,1.7 µM,–,–,–,–,–,0.0182 µM
"COc1cc(OC)c(-c2cn3ccc(C4=CCN(CCC#N)CC4)cc3n2)cc1Cl [Example 109, 3-(4-(2-(5-chloro-2,4-dimethoxyphenyl)imidazo[1,2-a]pyridin-7-yl)-5,6-dihydropyridin-1(2H)-yl)propanenitrile]",–,–,–,–,–,5.9 µM,2.6 µM,1.8 µM,5.1 µM,0.0417 µM
"COc1cc(OC)c(-c2cn3ccc(N4CCC(N)C4)nc3n2)cc1Cl (stereo not drawn) [Example 34, 1-(2-(5-chloro-2,4-dimethoxyphenyl)imidazo[1,2-a]pyrimidin-7-yl)pyrrolidin-3-amine hydrochloride]",12 µM,11 µM,4.4 µM,9.6 µM,0.0273 µM,–,–,–,–,–
"COc1cc(OC)c(-c2cn3ccc(N4CC[C@@H](N)C4)nc3n2)cc1Cl [Example 55, (R)-1-(2-(5-Chloro-2,4-dimethoxyphenyl)imidazo[1,2-a]pyrimidin-7-yl)pyrrolidin-3-amine hydrochloride]",12 µM,14 µM,4.8 µM,10 µM,0.0262 µM,–,–,–,–,–
"COc1cc(OC)c(-c2cn3ccc(N4CCN(CCN)CC4)cc3n2)cc1Cl [Example 29, 2-(4-(2-(5-chloro-2,4-dimethoxyphenyl)imidazo[1,2-a]pyridin-7-yl)piperazin-1-yl)ethanamine trihydrochloride]",7 µM,12 µM,4.5 µM,9.7 µM,0.012 µM,–,–,–,–,–
"COc1cc(OC)c(-c2cn3ccc(N4CCOCC4)cc3n2)cc1C#N [Example 93, 2,4-Dimethoxy-5-(7-morpholinoimidazo[1,2-a]pyridin-2-yl)benzonitrile]",6.4 µM,6.3 µM,9.6 µM,6.4 µM,–,–,–,–,–,0.0119 µM
"COc1cc(OC)c(-c2cn3ccc(N4CCC(CN)CC4)nc3n2)cc1Cl [Example 31, (1-(2-(5-chloro-2,4-dimethoxyphenyl)imidazo[1,2-a]pyrimidin-7-yl)piperidin-4-yl)methanamine hydrochloride]",18 µM,23 µM,9.3 µM,22 µM,0.0489 µM,–,–,–,–,–
